Several values for one entry are separate records, joined by “and”; a condition that tells them apart may be missing. Equal values may be shown once. Read-outs that look alike come from different tables or passages of the source.
Columns and labels:
HCC-2998 = test: NCI in vitro cytotoxicity screen; type: cell-based; conditions: Homo sapiens, HCC 2998, 48 h, read-out: LC50
Method in brief: (§1)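 Human tumour cells were seeded at 5000-40,000 per well and preincubated 24 hours at 37° C. Compounds were added at five 10-fold dilutions (10^−4 to 10^−8 […]) for 48 hours continuous exposure in 5% CO2. Viability was measured by sulphorhodamine B protein staining and optical density, giving LC50 values.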

MALME-3M = test: NCI in vitro cytotoxicity screen; type: cell-based
Method in brief: as §1

NCI-H460 = test: NCI in vitro cytotoxicity screen; type: cell-based; conditions: Homo sapiens; NCI-H460 (Lung), 48 hour exposure, SRB assay; read-out: LC50 (the source's name)
Method in brief: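 Cells plated at 5000-40,000 per well, preincubated 24 h at 37° C., then exposed continuously for 48 h to five 10-fold dilutions (10^−4 to 10^−8 […]) in 5% CO2. Viability read by sulphorhodamine B protein staining (optical density); LC50 taken as the dose killing half the cells.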

SNB-75 = test: NCI in vitro cytotoxicity screen; type: cell-based; conditions: Homo sapiens, SNB-75, 48 h, read-out: LC50
Method in brief: as §1

UACC-62 = test: NCI in vitro cytotoxicity screen; type: cell-based
Method in brief: as §1

[1] = system: human tumour cells cultivated in hollow fibres implanted in mice; test: NCI Hollow Fibre Assay; type: in vivo
Text: The Biological testing Branch of the Developmental Therapeutics Program of the NCI has adopted a preliminary in vivo screening tool for assessing the potential anticancer activity of compounds identified by the large scale in vitro cell screen. For these assays, human tumour cells are cultivated in polyvinylidene (PVDF) hollow fibres, and a sample of each cell line is implanted into each of two physiologic compartments (intraperitoneal and subcutaneaous) in mice. Each test mouse received a total of 6 fibres (3 intraperitoneally and 3 subcutaneously) representing 3 distinct cancer cell lines. These mice are treated with potential antitumour compounds at each of 2 test doses by the intraperitoneal route using a QD×4 treatment schedule. Vehicle controls consist of 6 mice receiving the compound diluent only. The fibre cultures are collected on the day following the last day of treatment. To assess anticancer effects, the viable cell mass is determined for each of the cell lines using a formazyn dye (MTT) conversion assay. From this, the % T/C can be calculated using the average optical density of compound treated samples divided by the average optical; density of the vehicle controls. In addition, the net increase in cell mass can be determined for each sample, as a sample of fibre cultures are assessed for viable cell mass on the day of implantation into mice. Thus, the cytostatic and cytocidal capacities of the test compound can be assessed.
Generally, each compound is tested against a minimum of 12 human cancer cell lines. This represents a total of 4 experiments since each experiment contains 3 cell lines. The data are reported as % T/C for each of the 2 compound doses against each of the cell lines with separate values calculated for the intraperitoneal and subcutaneous samples.
Compounds are selected for further in vivo testing in standard subcutaneous xenograft models on the basis of several hollow fibre assay criteria. These include: (1) a % T/C of 50 or less in 10 of the 48 possible test combinations (12 cell lines×2 sites×2 Compound doses); (2) activity at a distance (intraperitoneal drug/subcutaneous culture) in a minimum of 4 of the 24 possible combinations; and/or (3) a net cell kill of 1 or more of the cell lines in either implant site. To simplify evaluation, a points system has been adopted which allows rapid evaluation of the activity of a given compound. For this, a value of 2 is assigned for each compound dose which results in a 50% or greater reduction in viable cell mass. The intraperitoneal and subcutaneous samples are scored separately so that criteria (1) and (2) can be evaluated. Compounds with a combined IP+SC score of 20, a SC score of 8 or a net cell kill of one or more cell lines are referred for xenograft testing. […] In addition to these criteria, other factors (e.g. unique structure, mechanism of action) may result in referral of a compound for xenograft testing without the compound meeting these criteria.

human CNS tumour SF-295 = test: NCI human xenograft study; type: in vivo, mice; conditions: 5 doses
Method: These are carried out on nucle athymic mice with a disabled immune system. The human tumour tissue to be tested is implanted in their flanks, and whilst the control mouse receives no treatment, the others are subjected to varying doses of the test compound, which is administered intraperitoneally. The results are expressed as the toxicity of the compound, the amount of tumour growth, and the inhibition of growth.
UP2001 (80) was also evaluated against the human CNS tumour SF-295. Athymic nude mice bearing SF-295 were treated at doses of 0.40, 0.27 and 0.18 mg/Kg by injection given intravenously once daily for a total of 5 doses.

With `C=C1C[C@H]2C=Nc3cc(OCCCOc4cc5c(cc4OC)C(=O)N4CC(=C)C[C@H]4C=N5)c(OC)cc3C(=O)N2C1` [UP2001 (80)] the CC50 (HCC-2998) was 99 nM, the CC50 (MALME-3M; Homo sapiens, Malme-3M, 48 h, read-out: LC50, MALME-3M (Melanoma), 48 hour exposure, SRB assay) was 80 nM and the CC50 (MALME-3M; read-out: LC50, MALME-3M (Melanoma), 48 hour exposure, SRB assay) was 73 nM. For the same compound, the CC50 (NCI-H460) was 2700 nM, the CC50 (SNB-75) was 7.5 µM and the CC50 (UACC-62; Homo sapiens, UACC-62, 48 h, read-out: LC50, UACC-62 (Melanoma), 48 hour exposure, SRB assay) was 70 nM. For the same compound, the CC50 (UACC-62; read-out: LC50, UACC-62 (Melanoma), 48 hour exposure, SRB assay) was 77 nM, the Total score ([1]; combined IP+SC score) was 54 and the IP score ([1]; intraperitoneal fibres, 2 points per dose giving 50% or greater reduction in viable cell mass) was 40. The SC score ([1]; subcutaneous fibres, 2 points per dose giving 50% or greater reduction in viable cell mass) was 14, the “% T/C Low” value (human CNS tumour SF-295; 0.18 mg/Kg intravenously once daily) was 0% and the “Toxicity Low” value (human CNS tumour SF-295; 0.18 mg/Kg intravenously once daily, mice dying) was “two and 2/6”. The “Tumour Free Low” value (human CNS tumour SF-295; 0.18 mg/Kg intravenously once daily, surviving mice tumour free on day 27) was 3 out of 4 and 3/4, the “% T/C Med” value (human CNS tumour SF-295; 0.27 mg/Kg intravenously once daily) was 0% and the “Toxicity Med” value (human CNS tumour SF-295; 0.27 mg/Kg intravenously once daily, mice dying) was 1 and 1/6. For the same compound, the “Tumour Free Med” value (human CNS tumour SF-295; 0.27 mg/Kg intravenously once daily, surviving mice tumour free on day 27) was “all the surviving mice were tumour free and 5/5”, the “% T/C High” value (human CNS tumour SF-295; 0.40 mg/Kg intravenously once daily) was 0% and the “Toxicity High” value (human CNS tumour SF-295; 0.40 mg/Kg intravenously once daily, mice dying) was 2 and 2/6. For the same compound, the “Tumour Free High” value (human CNS tumour SF-295; 0.40 mg/Kg intravenously once daily, surviving mice tumour free on day 27) was “all the surviving mice were tumour free and 4/4”.

Reference: US7049311B1, “Pyrrolbenzodiazepines” (Spirogen Limited, priority 1998, dated 2006)
